Experimental data published in patent US9920010B2, “CXCR7 receptor modulators” (IDORSIA PHARMACEUTICALS LTD, priority 2013, dated 2018).
pEC50: −log10 of the molar value.

What follows are molecules tested against T1, CXCR7 (Homo sapiens, UniProt P25106) (assay: PathHunter CHO-K1 CXCR7 b-arrestin recruitment assay (CXCR7 agonistic activity)). Details: PathHunter CHO-K1 CXCR7 b-arrestin cell line.
T1 construct: host or cells: CHO-K1 (PathHunter CHO-K1 CXCR7 b-arrestin cell line, stably transfected)
T1 sequence (P25106 whole entry): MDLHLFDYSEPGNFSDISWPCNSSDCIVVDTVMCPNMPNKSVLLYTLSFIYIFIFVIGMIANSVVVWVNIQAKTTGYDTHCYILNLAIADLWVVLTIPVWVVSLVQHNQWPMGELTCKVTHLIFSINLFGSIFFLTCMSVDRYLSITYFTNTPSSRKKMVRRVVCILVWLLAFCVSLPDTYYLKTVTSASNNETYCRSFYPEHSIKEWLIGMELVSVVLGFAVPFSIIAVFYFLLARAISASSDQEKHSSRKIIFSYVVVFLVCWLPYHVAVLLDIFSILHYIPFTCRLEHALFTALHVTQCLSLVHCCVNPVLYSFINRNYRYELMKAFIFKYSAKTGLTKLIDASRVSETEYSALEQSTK
T1 sequence (P32121 whole entry partner): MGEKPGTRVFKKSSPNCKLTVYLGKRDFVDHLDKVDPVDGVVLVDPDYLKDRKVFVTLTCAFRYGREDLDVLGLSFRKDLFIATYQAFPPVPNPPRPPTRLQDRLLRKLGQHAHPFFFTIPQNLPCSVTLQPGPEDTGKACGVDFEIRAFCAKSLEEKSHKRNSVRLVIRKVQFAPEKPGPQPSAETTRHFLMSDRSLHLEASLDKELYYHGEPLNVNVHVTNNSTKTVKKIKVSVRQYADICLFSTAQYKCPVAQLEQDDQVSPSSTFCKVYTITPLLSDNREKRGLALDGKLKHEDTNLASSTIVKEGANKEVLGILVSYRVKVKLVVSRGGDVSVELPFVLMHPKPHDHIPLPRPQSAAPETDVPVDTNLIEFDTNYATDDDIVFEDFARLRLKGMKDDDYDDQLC
Format: cell-based
How it was run: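 Stable CHO-K1 line with C-terminally ProLink-tagged CXCR7 and β-arrestin 2–EA fusion; β-arrestin recruitment restores β-gal activity, read by chemiluminescence after 1 h RT detection. Cells seeded 24 h, starved in OPTIMEM 3–4 h, exposed to compounds 90 min at 37 °C in HBSS/HEPES/BSA. Geometric-mean EC50 from repeated measurements.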

pEC50 | Structure (SMILES)
7.29 | CN(C)CCN(Cc1ccccc1)C(=O)CNc1cccc2c1CN(CC1CC1)C2 [Example 209, N-Benzyl-2-(2-cyclopropylmethyl-2,3-dihydro-1H-isoindol-4-ylamino)-N-(2-dimethylamino-ethyl)-acetamide]
8.30 | CN(C)CCN(Cc1ccccc1C(F)(F)F)C(=O)CNc1cccc2c1CCN(C1CCCC1)C2 [Example 210, 2-((2-Cyclopentyl-1,2,3,4-tetrahydroisoquinolin-5-yl)amino)-N-(2-(dimethylamino)ethyl)-N-(2-(trifluoromethyl)benzyl)acetamide]
8.70 | CN1CCCC1CCN(Cc1ccccc1C(F)(F)F)C(=O)CNc1cccc2c1CCN(CC1CC1)C2 (stereo not drawn) [Example 213, 2-(2-Cyclopropylmethyl-1,2,3,4-tetrahydro-isoquinolin-5-ylamino)-N-[2-(1-methyl-pyrrolidin-2-yl)-ethyl]-N-(2-trifluoromethyl-benzyl)-acetamide]
8.52 | O=C(CNc1cccc2c1CCN(CC1CC1)C2)N(CCCN1CCCC1)Cc1ccccc1C(F)(F)F [Example 214, 2-(2-Cyclopropylmethyl-1,2,3,4-tetrahydro-isoquinolin-5-ylamino)-N-(3-pyrrolidin-1-yl-propyl)-N-(2-trifluoromethyl-benzyl)-acetamide]
6.97 | CN(CCN(Cc1ncccc1C(F)(F)F)C(=O)CNc1cccc2c1CCN(CC1CC1)C2)C(=O)OC(C)(C)C [Example 215, {2-[[2-(2-Cyclopropylmethyl-1,2,3,4-tetrahydro-isoquinolin-5-ylamino)-acetyl]-(3-trifluoromethyl-pyridin-2-ylmethyl)-amino]-ethyl}-methyl-carbamic acid tert-butyl ester]
7.47 | CC(C)(C)OC(=O)N1CCN(CCN(Cc2ccccc2C(F)(F)F)C(=O)CNc2cccc3c2CCN(CC2CC2)C3)CC1 [Example 216, 4-{2-[[2-(2-Cyclopropylmethyl-1,2,3,4-tetrahydro-isoquinolin-5-ylamino)-acetyl]-(2-trifluoromethyl-benzyl)-amino]-ethyl}-piperazine-1-carboxylic acid tert-butyl ester]
8.70 | O=C(CNc1cccc2c1CCN(CC1CC1)C2)N(CCN1CCCCC1)Cc1ccccc1C(F)(F)F [Example 217, 2-(2-Cyclopropylmethyl-1,2,3,4-tetrahydro-isoquinolin-5-ylamino)-N-(2-piperidin-1-yl-ethyl)-N-(2-trifluoromethyl-benzyl)-acetamide]
8.70 | O=C(CNc1cccc2c1CCN(CC1CC1)C2)N(CCN1CCCCCC1)Cc1ccccc1C(F)(F)F [Example 218, N-(2-Azepan-1-yl-ethyl)-2-(2-cyclopropylmethyl-1,2,3,4-tetrahydro-isoquinolin-5-ylamino)-N-(2-trifluoromethyl-benzyl)-acetamide]
8.52 | CC(C)N(CCN(Cc1ccccc1C(F)(F)F)C(=O)CNc1cccc2c1CCN(CC1CC1)C2)C(C)C [Example 219, 2-(2-Cyclopropylmethyl-1,2,3,4-tetrahydro-isoquinolin-5-ylamino)-N-(2-diisopropylamino-ethyl)-N-(2-trifluoromethyl-benzyl)-acetamide]
8.52 | CN(CCN(Cc1ccccc1C(F)(F)F)C(=O)CNc1cccc2c1CCN(CC1CC1)C2)C1CC1 [Example 220, N-[2-(Cyclopropyl-methyl-amino)-ethyl]-2-(2-cyclopropylmethyl-1,2,3,4-tetrahydro-isoquinolin-5-ylamino)-N-(2-trifluoromethyl-benzyl)-acetamide]
8.05 | CN(C)CCN(Cc1cccc(OC(F)(F)F)c1)C(=O)CNc1cccc2c1CCN(CC1CC1)C2 [Example 221, 2-(2-Cyclopropylmethyl-1,2,3,4-tetrahydro-isoquinolin-5-ylamino)-N-(2-dimethylamino-ethyl)-N-(3-trifluoromethoxy-benzyl)-acetamide]
7.57 | O=C(CNc1cccc2c1CCN(CC1CC1)C2)N(Cc1ccccc1C(F)(F)F)C1CCC(O)CC1 (stereo not drawn) [Example 222, 2-(2-Cyclopropylmethyl-1,2,3,4-tetrahydro-isoquinolin-5-ylamino)-N-(4-hydroxy-cyclohexyl)-N-(2-trifluoromethyl-benzyl)-acetamide]
8.00 | COCC(O)CN(Cc1ccccc1C(F)(F)F)C(=O)CNc1cccc2c1CCN(CC1CC1)C2 (stereo not drawn) [Example 223, 2-(2-Cyclopropylmethyl-1,2,3,4-tetrahydro-isoquinolin-5-ylamino)-N-(2-hydroxy-3-methoxy-propyl)-N-(2-trifluoromethyl-benzyl)-acetamide]
7.28 | O=C(CNc1cccc2c1CCN(CC1CC1)C2)N(CCC(F)(F)F)Cc1ccccc1C(F)(F)F [Example 224, 2-(2-Cyclopropylmethyl-1,2,3,4-tetrahydro-isoquinolin-5-ylamino)-N-(2-trifluoromethyl-benzyl)-N-(3,3,3-trifluoro-propyl)-acetamide]
7.54 | COCCN(Cc1ccccc1C(F)(F)F)C(=O)CNc1cccc2c1CCN(CC1CC1)C2 [Example 225, 2-(2-Cyclopropylmethyl-1,2,3,4-tetrahydro-isoquinolin-5-ylamino)-N-(2-methoxy-ethyl)-N-(2-trifluoromethyl-benzyl)-acetamide]
7.89 | O=C(CNc1cccc2c1CCN(CC1CC1)C2)N(Cc1ccccc1C(F)(F)F)CC1COCCO1 (stereo not drawn) [Example 226, 2-(2-Cyclopropylmethyl-1,2,3,4-tetrahydro-isoquinolin-5-ylamino)-N-[1,4]dioxan-2-ylmethyl-N-(2-trifluoromethyl-benzyl)-acetamide]
8.22 | CN(C)CCN(Cc1ccccc1OC(F)(F)F)C(=O)CNc1cccc2c1CCN(CC1CC1)C2 [Example 227, 2-(2-Cyclopropylmethyl-1,2,3,4-tetrahydro-isoquinolin-5-ylamino)-N-(2-dimethylamino-ethyl)-N-(2-trifluoromethoxy-benzyl)-acetamide]
6.93 | CN(C)CCN(Cc1ccc(OC(F)(F)F)cc1)C(=O)CNc1cccc2c1CCN(CC1CC1)C2 [Example 228, 2-(2-Cyclopropylmethyl-1,2,3,4-tetrahydro-isoquinolin-5-ylamino)-N-(2-dimethylamino-ethyl)-N-(4-trifluoromethoxy-benzyl)-acetamide]
7.42 | CS(=O)(=O)CCN(Cc1ccccc1C(F)(F)F)C(=O)CNc1cccc2c1CCN(CC1CC1)C2 [Example 229, 2-(2-Cyclopropylmethyl-1,2,3,4-tetrahydro-isoquinolin-5-ylamino)-N-(2-methanesulfonyl-ethyl)-N-(2-trifluoromethyl-benzyl)-acetamide]
7.09 | CS(=O)(=O)NCCN(Cc1ccccc1C(F)(F)F)C(=O)CNc1cccc2c1CCN(CC1CC1)C2 [Example 230, 2-(2-Cyclopropylmethyl-1,2,3,4-tetrahydro-isoquinolin-5-ylamino)-N-(2-methanesulfonylamino-ethyl)-N-(2-trifluoromethyl-benzyl)-acetamide]
9.00 | CCN(C)CCN(Cc1ccccc1C(F)(F)F)C(=O)CNc1cccc2c1CCN(CC1CC1)C2 [Example 231, 2-(2-Cyclopropylmethyl-1,2,3,4-tetrahydro-isoquinolin-5-ylamino)-N-[2-(ethyl-methyl-amino)-ethyl]-N-(2-trifluoromethyl-benzyl)-acetamide]
